From US9040533B2, “Oxime-substituted-quinoxaline-type piperidine compounds as ORL-1 modulators” (priority 2012, dated 2015)

How the values were obtained:
Experiment in all cases: biochemical
[1] = biological target: CYP2C19 (Homo sapiens, UniProt P33261)
[2] = biological target: CYP3A4 (Homo sapiens, UniProt P08684)
[3] = biological target: T1, CYP1A2 (Homo sapiens, UniProt P05177)
T1 sequence (P05177 1-516): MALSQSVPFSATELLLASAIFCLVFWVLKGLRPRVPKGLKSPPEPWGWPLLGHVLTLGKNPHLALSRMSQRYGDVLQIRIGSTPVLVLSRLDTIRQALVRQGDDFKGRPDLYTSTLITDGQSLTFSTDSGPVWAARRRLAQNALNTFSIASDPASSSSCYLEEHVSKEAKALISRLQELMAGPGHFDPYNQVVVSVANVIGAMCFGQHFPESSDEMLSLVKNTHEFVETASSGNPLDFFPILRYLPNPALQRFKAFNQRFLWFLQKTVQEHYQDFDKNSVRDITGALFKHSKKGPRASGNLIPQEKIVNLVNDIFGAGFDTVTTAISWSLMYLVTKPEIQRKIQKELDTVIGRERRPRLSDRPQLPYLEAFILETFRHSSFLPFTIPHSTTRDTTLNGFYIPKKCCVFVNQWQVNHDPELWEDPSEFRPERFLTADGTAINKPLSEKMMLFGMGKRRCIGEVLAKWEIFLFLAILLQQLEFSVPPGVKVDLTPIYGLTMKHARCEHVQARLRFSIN

[4] = biological target: CYP2C9 (Homo sapiens, UniProt P11712)
[5] = biological target: CYP2D6 (Homo sapiens, UniProt P10635)

Measured: IC50

Chain of CYP2C9 (P11712 whole entry): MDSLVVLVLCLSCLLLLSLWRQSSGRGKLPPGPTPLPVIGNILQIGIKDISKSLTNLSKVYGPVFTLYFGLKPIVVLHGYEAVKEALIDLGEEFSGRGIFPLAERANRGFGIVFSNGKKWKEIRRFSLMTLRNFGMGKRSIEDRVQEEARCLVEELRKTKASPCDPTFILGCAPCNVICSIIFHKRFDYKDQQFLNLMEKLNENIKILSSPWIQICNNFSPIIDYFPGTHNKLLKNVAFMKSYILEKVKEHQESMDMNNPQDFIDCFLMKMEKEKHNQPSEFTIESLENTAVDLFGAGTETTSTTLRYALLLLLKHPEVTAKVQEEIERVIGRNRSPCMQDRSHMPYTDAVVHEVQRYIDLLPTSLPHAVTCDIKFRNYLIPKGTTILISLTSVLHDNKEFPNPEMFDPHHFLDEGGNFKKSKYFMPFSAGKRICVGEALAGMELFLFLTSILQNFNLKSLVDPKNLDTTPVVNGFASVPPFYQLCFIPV
Chain of CYP2C19 (P33261 whole entry): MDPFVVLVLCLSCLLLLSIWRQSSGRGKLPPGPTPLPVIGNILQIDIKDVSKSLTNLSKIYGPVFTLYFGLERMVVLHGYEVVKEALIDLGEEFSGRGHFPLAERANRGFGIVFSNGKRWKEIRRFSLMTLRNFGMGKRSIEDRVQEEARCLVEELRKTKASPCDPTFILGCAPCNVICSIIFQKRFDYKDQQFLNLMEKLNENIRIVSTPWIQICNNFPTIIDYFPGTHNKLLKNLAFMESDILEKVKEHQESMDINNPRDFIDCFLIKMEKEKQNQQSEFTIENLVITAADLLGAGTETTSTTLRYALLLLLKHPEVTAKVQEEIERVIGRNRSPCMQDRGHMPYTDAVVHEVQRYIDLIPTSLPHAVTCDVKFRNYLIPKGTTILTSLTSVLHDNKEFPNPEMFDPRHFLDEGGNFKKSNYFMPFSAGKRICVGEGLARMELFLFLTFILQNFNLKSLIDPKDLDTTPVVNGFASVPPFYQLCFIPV
Chain of CYP2D6 (P10635 whole entry): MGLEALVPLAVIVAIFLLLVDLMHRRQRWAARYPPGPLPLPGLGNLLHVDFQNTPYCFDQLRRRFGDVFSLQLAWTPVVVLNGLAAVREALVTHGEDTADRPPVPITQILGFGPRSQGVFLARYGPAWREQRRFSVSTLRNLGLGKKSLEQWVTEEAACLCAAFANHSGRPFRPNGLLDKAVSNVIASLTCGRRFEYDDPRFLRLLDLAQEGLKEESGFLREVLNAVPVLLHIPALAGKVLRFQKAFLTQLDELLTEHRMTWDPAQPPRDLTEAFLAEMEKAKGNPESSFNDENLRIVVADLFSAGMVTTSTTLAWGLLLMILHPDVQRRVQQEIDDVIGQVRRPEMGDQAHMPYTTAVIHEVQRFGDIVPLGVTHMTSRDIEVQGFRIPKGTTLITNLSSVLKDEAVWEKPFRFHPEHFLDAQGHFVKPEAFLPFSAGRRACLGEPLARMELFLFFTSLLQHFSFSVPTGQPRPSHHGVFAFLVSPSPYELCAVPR
Chain of CYP3A4 (P08684 whole entry): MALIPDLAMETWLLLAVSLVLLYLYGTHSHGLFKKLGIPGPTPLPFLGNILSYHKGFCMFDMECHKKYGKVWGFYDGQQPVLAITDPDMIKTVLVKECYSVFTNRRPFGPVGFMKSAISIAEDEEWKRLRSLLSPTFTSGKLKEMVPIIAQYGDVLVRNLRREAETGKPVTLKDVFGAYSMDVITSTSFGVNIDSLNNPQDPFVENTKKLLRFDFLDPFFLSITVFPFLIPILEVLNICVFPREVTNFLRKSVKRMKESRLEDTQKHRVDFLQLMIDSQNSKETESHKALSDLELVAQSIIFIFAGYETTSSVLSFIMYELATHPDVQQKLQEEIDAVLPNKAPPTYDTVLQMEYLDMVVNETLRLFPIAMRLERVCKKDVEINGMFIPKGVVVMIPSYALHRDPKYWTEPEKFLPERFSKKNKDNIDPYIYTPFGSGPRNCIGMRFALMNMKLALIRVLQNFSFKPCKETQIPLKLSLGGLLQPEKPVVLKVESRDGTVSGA

CC(C)O/N=C(\C(=O)O)c1nc2ccccc2n([C@H]2C[C@H]3CCC[C@@H](C2)N3C2CC3CCCCC(C3)C2)c1=O (stereo partly drawn) [Compound 33, 2-(4-((1R,3R)-9-(bicyclo[4.3.1]decan-8-yl)-9-azabicyclo[3.3.1]nonan-3-yl)-3-oxo-3,4-dihydroquinoxalin-2-yl)-2-(isopropoxyimino)acetic acid]
> 20 µM: all assays above

CCON=C(C(=O)O)c1nc2ccccc2n([C@H]2C[C@H]3CC[C@@H](C2)N3C2CC3CCCCC(C3)C2)c1=O (stereo partly drawn) [Compound 36]
> 20 µM: all assays above

CC(C)ON=C(C(=O)O)c1nc2ccccc2n([C@H]2C[C@H]3CC[C@@H](C2)N3C2CC3CCCCC(C3)C2)c1=O (stereo partly drawn) [Compound 37, [4-((1S,3R,5R)-(1R,6S,8S)-8-bicyclo[4.3.1]dec-8-yl-8-aza-bicyclo[3.2.1]oct-3-yl)-3-oxo-3,4-dihydro-quinoxalin-2-yl]-isopropoxyimino-acetic acid]
> 20 µM: all assays above

NC(=O)CO/N=C(\C(=O)O)c1nc2ccccc2n([C@H]2C[C@H]3CCC[C@@H](C2)N3C2CC3CCCC(C3)C2)c1=O (stereo partly drawn) [Compound 38, (Z)-2-(2-amino-2-oxoethoxyimino)-2-(4-((1R,3R)-9-(bicyclo[3.3.1]nonan-3-yl)-9-azabicyclo[3.3.1]nonan-3-yl)-3-oxo-3,4-dihydroquinoxalin-2-yl)acetic acid]
> 20 µM: all assays above

NC(=O)CO/N=C(\CCC(=O)O)c1nc2ccccc2n([C@H]2C[C@H]3CCC[C@@H](C2)N3C2CC3CCCC(C3)C2)c1=O (stereo partly drawn) [Compound 39]
> 20 µM: all assays above

NC(=O)CO/N=C(\CCC(=O)O)c1nc2ccccc2n([C@H]2C[C@H]3CCC[C@@H](C2)N3C2CC3CCCCC(C3)C2)c1=O (stereo partly drawn) [Compound 41, (E)-4-(2-amino-2-oxoethoxyimino)-4-(4-((1R,3R)-9-(bicyclo[4.3.1]decan-8-yl)-9-azabicyclo[3.3.1]nonan-3-yl)-3-oxo-3,4-dihydroquinoxalin-2-yl)butanoic acid]
> 20 µM: all assays above

CNC(=O)CCC(=NOCC(=O)O)c1nc2ccccc2n([C@H]2C[C@H]3CCC[C@@H](C2)N3C2CC3CCCC(C3)C2)c1=O (stereo partly drawn) [Compound 42, 2-(((1-(4-((1R,1′R,3r,3′R,5S,5′S)-[3,9′-bi(9′-azabicyclo[3.3.1]nonan)]-3′-yl)-3-oxo-3,4-dihydroquinoxalin-2-yl)-4-(methylamino)-4-oxobutylidene)amino)oxy)acetic acid]
> 20 µM: all assays above

CNC(=O)/C(=N\OCC(=O)O)c1nc2ccccc2n([C@H]2C[C@H]3CCC[C@@H](C2)N3C2CC3CCCC(C3)C2)c1=O (stereo partly drawn) [Compound 43]
> 20 µM: all assays above

NC(=O)CCC(=NOCC(=O)O)c1nc2ccccc2n([C@H]2C[C@H]3CCC[C@@H](C2)N3C2CC3CCCC(C3)C2)c1=O (stereo partly drawn) [Compound 44]
> 20 µM: all assays above

NC(=O)CO/N=C(\C(=O)O)c1nc2ccccc2n([C@H]2C[C@H]3CCC[C@@H](C2)N3C2CC3CCCCC(C3)C2)c1=O (stereo partly drawn) [Compound 45, (Z)-2-(2-amino-2-oxoethoxyimino)-2-(4-((1R,3R)-9-(bicyclo[4.3.1]decan-8-yl)-9-azabicyclo[3.3.1]nonan-3-yl)-3-oxo-3,4-dihydroquinoxalin-2-yl)acetic acid]
> 20 µM: all assays above

COCCO/N=C(\C(=O)O)c1nc2ccccc2n([C@H]2C[C@H]3CCC[C@@H](C2)N3C2CC3CCCCC(C3)C2)c1=O (stereo partly drawn) [Compound 46]
> 20 µM: all assays above

COCCO/N=C(\C(=O)O)c1nc2ccccc2n([C@H]2C[C@H]3CCC[C@@H](C2)N3C2CC3CCCC(C3)C2)c1=O (stereo partly drawn) [Compound 49]
> 20 µM: all assays above

CON=C(C(=O)O)c1nc2ccccc2n([C@H]2C[C@H]3COC[C@@H](C2)N3C2CC3CCCCC(C3)C2)c1=O (stereo partly drawn) [Compound 50, [4-((1R,5S,7S)-(1S,6R,8R)-9-bicyclo[4.3.1]dec-8-yl-3-oxa-9-aza-bicyclo[3.3.1]non-7-yl)-3-oxo-3,4-dihydro-quinoxalin-2-yl]-methoxyimino-acetic acid]
> 20 µM: all assays above

CN(C)C(=O)C(=NOCC(=O)O)c1nc2ccccc2n([C@H]2C[C@H]3CCC[C@@H](C2)N3C2CC3CCCC(C3)C2)c1=O (stereo partly drawn) [Compound 51]
> 20 µM: all assays above

CC(O/N=C(\C(=O)O)c1nc2ccccc2n([C@H]2C[C@H]3CCC[C@@H](C2)N3C2CC3CCCC(C3)C2)c1=O)C(N)=O (stereo partly drawn) [Compound 52]
> 20 µM: all assays above

CC(C)C(O/N=C(\C(=O)O)c1nc2ccccc2n([C@H]2C[C@H]3CCC[C@@H](C2)N3C2CC3CCCC(C3)C2)c1=O)C(N)=O (stereo partly drawn) [Compound 53]
> 20 µM: all assays above

CNC(=O)C(=NOCC(=O)O)c1nc2ccccc2n([C@H]2C[C@H]3CCC[C@@H](C2)N3C2CC3CCCCC(C3)C2)c1=O (stereo partly drawn) [Compound 54]
> 20 µM: all assays above

NC(=O)C(=NOCC(=O)O)c1nc2ccccc2n([C@H]2C[C@H]3CCC[C@@H](C2)N3C2CC3CCCCC(C3)C2)c1=O (stereo partly drawn) [Compound 55]
> 20 µM: all assays above

COCCO/N=C(\CCC(=O)O)c1nc2ccccc2n([C@H]2C[C@H]3CCC[C@@H](C2)N3C2CC3CCCCC(C3)C2)c1=O (stereo partly drawn) [Compound 56]
> 20 µM: all assays above

CC(C)(ON=C(C(N)=O)c1nc2ccccc2n([C@H]2C[C@H]3CCC[C@@H](C2)N3C2CC3CCCC(C3)C2)c1=O)C(=O)O (stereo partly drawn) [Compound 57]
> 20 µM: all assays above

CNC(=O)CCC(=NOCC(=O)O)c1nc2ccccc2n([C@H]2C[C@H]3CCC[C@@H](C2)N3C2CC3CCCCC(C3)C2)c1=O (stereo partly drawn) [Compound 58]
> 20 µM: all assays above

NC(=O)CCC(=NOCC(=O)O)c1nc2ccccc2n([C@H]2C[C@H]3CCC[C@@H](C2)N3C2CC3CCCCC(C3)C2)c1=O (stereo partly drawn) [Compound 59]
> 20 µM: all assays above

NC(=O)CO/N=C(\C(=O)O)c1nc2ccccc2n([C@H]2C[C@H]3CC[C@@H](C2)N3C2CC3CCCCC(C3)C2)c1=O (stereo partly drawn) [Compound 60]
> 20 µM: all assays above

CC(C)(O/N=C(\C(=O)O)c1nc2ccccc2n([C@H]2C[C@H]3CC[C@@H](C2)N3C2CC3CCCCC(C3)C2)c1=O)C(N)=O (stereo partly drawn) [Compound 61]
> 20 µM: all assays above

CN(C)C(=O)CON=C(C(=O)O)c1nc2ccccc2n([C@H]2C[C@H]3CCC[C@@H](C2)N3C2CC3CCCC(C3)C2)c1=O (stereo partly drawn) [Compound 63]
> 20 µM: all assays above

CNC(=O)CON=C(C(=O)O)c1nc2ccccc2n([C@H]2C[C@H]3CCC[C@@H](C2)N3C2CC3CCCC(C3)C2)c1=O (stereo partly drawn) [Compound 64]
> 20 µM: all assays above

N#CC(=NOCC(=O)O)c1nc2ccccc2n([C@H]2C[C@H]3CCC[C@@H](C2)N3C2CC3CCCC(C3)C2)c1=O (stereo partly drawn) [Compound 65, 2-((((4-((1R,1′R,3r,3′R,5S,5′S)-[3,9′-bi(9′-azabicyclo[3.3.1]nonan)]-3′-yl)-3-oxo-3,4-dihydroquinoxalin-2-yl)(cyano)methylene)amino)oxy)acetic acid]
> 20 µM: all assays above
